# Assay results published in PMC9004346, “Development of small cyclic peptides targeting the CK2α/β interface” (Chemical Communications (Cambridge, England), 2022).
# Residue numbers refer to the chain shown, from its start. *1 amine or outer side, *2 acyl side, *3 side chain or, on linkers, in order; H or OH if unused. Where a SMILES comes first, the peptide text is derived from it. Bridges are numbered along the chain shown (N, C = ends). [ ]: non-standard residue; d: D form. Trp(2-yl) = O=C([C@H](Cc1c([*:3])[nH]c2ccccc12)N[*:1])[*:2]; hCys = N[C@@H](CCS)C(=O)O
# Experiments:
# [1] = target: T1, CK2α (Homo sapiens, UniProt P68400); assay: Fluorescence polarisation (FP) assay: displacement of a CK2β-like fluorescent probe from CK2α; type: binding; conditions: CK2α_WT (residues 2-329), fluorescein-labelled CK2β-based peptide probe, ±SEM
# T1 construct: 571 nM CK2α_WT (residues 2-329); made in house
# T1 sequence (P68400 2-329): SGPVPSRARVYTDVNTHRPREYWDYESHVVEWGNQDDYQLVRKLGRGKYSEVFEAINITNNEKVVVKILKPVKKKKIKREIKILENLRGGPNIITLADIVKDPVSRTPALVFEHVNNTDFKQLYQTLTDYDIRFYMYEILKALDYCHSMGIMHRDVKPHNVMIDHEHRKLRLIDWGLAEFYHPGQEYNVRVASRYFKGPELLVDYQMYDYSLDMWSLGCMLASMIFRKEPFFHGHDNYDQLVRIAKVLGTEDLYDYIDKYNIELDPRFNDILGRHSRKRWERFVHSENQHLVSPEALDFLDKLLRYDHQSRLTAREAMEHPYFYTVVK
# Text: To assess the ability of the synthesised linear peptides to displace a CK2β-like fluorescent probe from CK2α, a fluorescence polarisation (FP) assay was used (Table 1, ESI 1.3.2 and Fig. S2, ESI ^†). […]
# (§1) 1.5 Biophysical experiments
# (§2) 1.5.1 Protein expression and purification
# Three constructs of CK2α were used in this study. For FP assays, CK2α_WT was used (residues 2-329). […]
# These constructs were cloned, expressed, and purified as previously described.19 1.5.2 Fluorescence polarisation
# IC50’s were determined using a PHERAstar FS plate reader (BMG labtech). The fluorescein probe was measured using 485 nm excitation and 530 nm emission. The fluorescein probe was covalently linked to the N-terminus of the linear CK2β-based peptide RLYGFKIHPMAYQLQ. IC50’s were measured using 500, 167, 16.7, 8.33 and 0 μM of the test peptide at a constant concentration of DMSO. P7C8, P8C9, P+L and P+ were tested at concentrations of 50.0, 16.7, 1.67, 0.833 and 0 μM due to their higher potencies. The experiments were performed in a Corning 384-well plate with final concentrations of 571 nM CK2α_WT (residues 2-329), 7.4 μM fluorescent peptide (fluorescein probe was covalently linked to the N-terminus of the linear CK2β-based peptide RLYGFKIHPMAYQLQ), 200 mM NaCl, 40mM TRIS, 20 mM MgCl2 and pH 7.5. The plates were read after a 45 min incubation period. […]
# [2] = target: T2, CK2α (Homo sapiens, UniProt P68400, K74A/K75A/K76A/R21S); assay: Isothermal titration calorimetry (ITC) binding to CK2α; conditions: 25 °C, CK2α_KA
# T2 construct: CK2α_KA (residues 2-329) contained four mutations; made in house
# T2 sequence (P68400 2-329 R21S/K74A/K75A/K76A): T1 sequence (P68400 2-329) with R20S, K73A, K74A, K75A
# Text: Ligand efficiency (LE) is a commonly used statistic to evaluate and compare the effectiveness of drug candidates.17 Mathematically, it is related to the IC50 of the molecule, as well as the number of heavy atoms (non-hydrogen) it contains, as detailed in Equation 1. 18
# Equation 1 Mathematical expression for the ligand efficiencies of compounds.18 pIC50 = -log10(IC50) LE = Number of non ‒ H atoms […]
# greatest activity with the fewest heavy atoms.
# as §1, §2
# Three constructs of CK2α were used in this study. For FP assays, CK2α_WT was used (residues 2-329).
# For ITC CK2α_KA construct was used whilst CK2α_FP10 was used for crystallisation purposes. CK2α_KA (residues 2-329) contained four mutations designed to aid crystallisation and solubility by reducing the overall charge of the protein; R21S, K74A, K75A and K76A. CK2α_FP 10 contained one mutation (R21S) and an N-terminal extension […] aimed at mimicking a substrate peptide for CK2α. These constructs were cloned, expressed, and purified as previously described.19 1.5.2 Fluorescence polarisation
# IC50’s were determined using a PHERAstar FS plate reader (BMG labtech). The fluorescein probe was measured using 485 nm excitation and 530 nm emission. The fluorescein probe was covalently linked to the N-terminus of the linear CK2β-based peptide RLYGFKIHPMAYQLQ. IC50’s were measured using 500, 167, 16.7, 8.33 and 0 μM of the test peptide at a constant concentration of DMSO. P7C8, P8C9, P+L and P+ were tested at concentrations of 50.0, 16.7, 1.67, 0.833 and 0 μM due to their higher potencies. The experiments were performed in a Corning 384-well plate with final concentrations of 571 nM CK2α_WT (residues 2-329), 7.4 μM fluorescent peptide (fluorescein probe was covalently linked to the N-terminus of the linear CK2β-based peptide RLYGFKIHPMAYQLQ), 200 mM NaCl, 40mM TRIS, 20 mM MgCl2 and pH 7.5. The plates were read after a 45 min incubation period.
# 1.5.3 Isothermal titration calorimetry
# All ITC experiments were performed at 25 °C using a MicroCal ITC-200 (GE Healthcare). […]
smiles,measurement,setting,value
"CC(=O)N[C@H]1CCSc2[nH]c3ccccc3c2C[C@@H](C(N)=O)NC(=O)[C@H](CCCCN)NC(=O)[C@H](Cc2ccccc2)NC(=O)CNC(=O)[C@H](Cc2ccc(O)cc2)NC(=O)[C@H](CC(C)C)NC(=O)[C@H](CCCNC(=N)N)NC1=O [Peptide P8C9, (hC)C9RLYGFKWC9] (Ac-[hCys]RLYGFK[Trp(2-yl)]-NH2; thioether 1-8)",IC50,[1],1700 ± 300 nM
same,Kd,[2],750 nM
